According to PubChem BioAssay AID1322 (NMMLSC, 2008):
Calls of active or inactive are those of the source. No rule for the calls is given here.

molecular target: Bcl-2-like protein 1 (Homo sapiens) (UniProt Q07817); test: Bim-Bcl-XL interaction inhibitors, potency, dose response, biochemical, multiplexed, bead flow cytometry, human Bcl-XL (AID 1322); conditions: Bead-based flow cytometry, Bim peptide-Bcl-XL binding, MCF; as to inhibition: test concentration not given here
Sequence (Q07817 whole entry, looked up): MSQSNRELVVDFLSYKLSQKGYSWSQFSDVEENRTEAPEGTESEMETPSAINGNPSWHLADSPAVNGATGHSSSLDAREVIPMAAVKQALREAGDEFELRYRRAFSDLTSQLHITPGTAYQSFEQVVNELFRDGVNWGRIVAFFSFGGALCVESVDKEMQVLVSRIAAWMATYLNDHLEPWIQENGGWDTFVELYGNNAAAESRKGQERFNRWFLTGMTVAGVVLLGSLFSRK

SMILES | outcome
Cc1ccc(NC(=S)N2CCn3cccc3C2c2cccnc2)cc1 (stereo not drawn) | inactive
O=C(Cc1ccccc1)N/N=C/c1cccn1-c1ccc([N+](=O)[O-])cc1 | inactive
O=C(C1CCC(Cn2c(=S)[nH]c3ccccc3c2=O)CC1)N1CCN(c2ccccn2)CC1 (stereo not drawn) | inactive
COc1ccc(N2CCN(C(CNS(=O)(=O)c3ccc4c(c3)OCCO4)c3ccco3)CC2)cc1 (stereo not drawn) | inactive
CC(=O)Nc1ccc2nc(CN3CCN(CC(C)C)C(CCO)C3)ccc2c1 (stereo not drawn) | inactive
Clc1ccc2c(N/N=C/c3ccc(Br)cc3)ccnc2c1 | inactive
CC1CC2=C(NC(=S)NC2c2ccccc2F)/C(=C/c2ccccc2F)C1 (stereo not drawn) | inactive
O=C(CCc1ccccc1)N1CCN(c2ccccn2)CC1 | inactive
O=C(CC1NCCNC1=O)Nc1cccc([N+](=O)[O-])c1 (stereo not drawn) | inactive
Cc1ccc(NN2C(=O)C=CC2=O)cc1 | inactive
CC(C)C(=O)NC(c1ccccc1)c1cc([N+](=O)[O-])c2cccnc2c1O (stereo not drawn) | inactive
CCN(CC)c1ccc(NC2=C(Cl)C(=O)c3ccccc3C2=O)cc1 | inactive
Cn1c(N)c(C(=O)COC(=O)c2cncc(Br)c2)c(=O)n(C)c1=O | inactive

same assay, conditions: Bead-based flow cytometry, Bim peptide-Bcl-XL binding, MCF

SMILES | inhibition
COc1ccc(C2=Nc3cccc4cccc(c34)N2)cc1 | inactive
S=c1[nH]cc(-c2ccccc2)n1-c1ccccc1 | inactive
CC(/C=C/C(=O)c1ccc(C)cc1)=C\c1ccccc1 | inactive
COc1ccc2oc(-c3ccccc3)c(C(=O)N3CCOCC3)c2c1 | inactive
CCN1CCN(CC(=O)c2c[nH]c3ccc(C)cc23)CC1 | inactive
CCOc1ccc(C(=O)Nc2nnn(CC)n2)cc1 | inactive
Cc1cc(C)nc(SCc2cc(=O)c(OC(=O)c3cccc([N+](=O)[O-])c3)co2)n1 | inactive
O=C(COc1ccccc1)N1CCN(c2ncnc3c2cnn3-c2ccccc2)CC1 | inactive
CCSc1nnc(NC(=O)c2c(-c3ccccc3Cl)noc2C)s1 | inactive
O=C(Nc1nnc(COc2ccc(Cl)cc2)s1)c1ccco1 | inactive
Cc1cc(N2CCN(C)CC2)nc2ccc(NC(=S)N3CCN(c4ccc(F)cc4)CC3)cc12 | inactive
CCn1c(C)nc2cc(C(=O)N/N=C/c3ccc(O)c(O)c3O)ccc21 | inactive
Cc1cccc(OCC(=O)NCC(=O)N/N=C/c2cc(Br)ccc2OCc2ccccc2)c1 | inactive
CC(C)NS(=O)(=O)c1ccc(OCC(=O)Nc2ccc(F)cc2)cc1 | inactive
CNCc1ccccc1Sc1ccc(O)c(O)c1 | inactive
COc1ccccc1Cn1nnc2c(=O)[nH]c(C3CCN(C(=O)c4ccc(C)cc4)CC3)nc21 | inactive
CCOc1ccc(C(=O)Nc2nnc(NC(=S)Nc3ccccc3)s2)cc1 | inactive
c1ccc(Nc2nc(-c3ccncc3)cs2)cc1 | inactive
CCc1nnc(NS(=O)(=O)c2ccc(N=CC3=C(O)CC(C)(C)CC3=O)cc2)s1 | inactive
COCCN=c1scc(-c2cccs2)n1/N=C/c1ccc(O)c(O)c1O | inactive
CCCC(=O)OCCNc1cc(Sc2nccn2C)c2nonc2c1[N+](=O)[O-] | inactive
CC(C)Cc1cc(-c2ccco2)c(C#N)c(N)n1 | inactive

SMILES | inhibition
Cc1cccc(N2C(S)=C(C#N)C(=O)NC2c2cccs2)c1 (stereo not drawn) | inactive
Cc1ccc(N=Cc2c(O)n(-c3ccc4c(c3)OCO4)c(=O)c3ccccc23)cc1 | inactive
Cc1ccc(Nc2nc(CSc3nnc(-c4cccnc4)n3-c3ccccc3C)cs2)cc1 | inactive
Cc1cc(N2CCN(C)CC2)nc2ccc(NC(=S)N3CCCCC3)cc12 | inactive
CCOC(=O)C1=C(Cc2ccc(C)cc2)C(=O)c2ccccc2C1=O | inactive
CCC(CC)C(=O)Nc1cccc(S(=O)(=O)c2cccc(NC(=O)C(CC)CC)c2)c1 | inactive
Cc1cccc(/C=N/N(CCO)C2=NS(=O)(=O)c3ccccc32)c1 | inactive
Cc1csc(SCCn2c(N3CCN(c4ccccc4)CC3)nc3c2c(=O)[nH]c(=O)n3C)n1 | inactive
S=C(Nc1ccc(N2CCOCC2)cc1)Nc1ccc2nc(-c3ccco3)c(-c3ccco3)nc2c1 | inactive
Cn1c(=O)c(C(=O)COC(=O)c2cc(-c3ccco3)nc3ccccc23)c(N)n(Cc2ccccc2)c1=O | inactive
COP(=O)(CC(=O)O)c1ccccc1 (stereo not drawn) | inactive
COC(=O)c1c(C(=O)OC)c2cccc3cc(-c4ccccc4)c4ccc1c4n32 | inactive
Cc1nnc(Sc2cc(NCCO)c([N+](=O)[O-])c3nonc23)s1 | inactive
O=C1NC(=S)S/C1=C/c1ccc(N2CCOCC2)o1 | inactive
CCOC(=O)c1c(NC(C)=O)sc2c(O)c(Br)cc(Br)c12 | inactive
CCN(CC)c1ccc(-c2nn3c(-c4ccccc4OC)nnc3s2)cc1 | inactive
Cc1cccc(Nc2nc(-c3ccncc3)cs2)c1 | inactive
O=C(Nc1ccc2nc(-c3ccco3)c(-c3ccco3)nc2c1)N1CCN(c2ccccn2)CC1 | inactive
O=C(NCCCN1CCCC1=O)NC1CCCCC1 | inactive
COCCNC(=S)Nc1cc(OC)c(OC)cc1C#N | inactive
Cc1ccc(NC(=O)CSc2nc3ccccc3c(=O)n2CCCN2CCCCC2)cc1Cl | inactive
CC(C)CN1C(=O)/C(=C/c2ccco2)NC1=S | inactive

SMILES | inhibition
Cn1c(N)c(C(=O)COC(=O)c2cc(-c3ccco3)nc3ccccc23)c(=O)n(C)c1=O | inactive
O=C(N/N=C/c1ccc(O)c(O)c1O)/C(=C/c1ccc([N+](=O)[O-])cc1)NC(=O)c1ccccc1 | inactive
COc1cccc2c(SCC(=O)N/N=C/c3ccc(O)c(O)c3)cc(C)nc12 | inactive
S=C1NC2=C(CCC/C2=C\c2ccccc2)C(c2ccccc2)N1 (stereo not drawn) | inactive
Fc1ccc(Cn2nnnc2C(c2ccc(Cl)cc2)N2CCSCC2)cc1 (stereo not drawn) | inactive
Cc1ccc(-c2cc(C(=O)Nc3ccccc3C)c3ccccc3n2)o1 | inactive
CCOc1ccc(CNc2ccc(N3CCCC3)cc2)cc1 | inactive
CC1Nc2ccccc2C(=O)N1NS(C)(=O)=O (stereo not drawn) | inactive
Cc1ccc(-c2cc(-c3ccc4c(c3)OCO4)c(C#N)c(N)n2)o1 | inactive
O=C(NCCc1ccccc1)c1ccc2nc(-c3ccco3)c(-c3ccco3)nc2c1 | inactive
CN(C)/C=C/C(=O)c1ccc(C(F)(F)F)cc1F | inactive
CCOCCOc1nc2c(c(=O)n(C)c(=O)n2C)n1CCc1ccccc1 | inactive
COc1cc(NC(=S)NCCCO)c(OC)cc1Cl | inactive
CN1CCS/C1=C/C=C1/SC(=S)N(Cc2ccccc2)C1=O | inactive
COc1ccccc1-n1c(SCC(=O)N2CCc3ccccc32)nc2c(c1=O)SCC2 | inactive
O=C(CSc1nc2ccsc2c(=O)n1Cc1ccc(C(=O)O)cc1)NCC1CCCO1 (stereo not drawn) | inactive
O=C(/C=C/c1ccc(-c2ccccc2)o1)c1ccccc1 | inactive
O=C(CSc1nnc(-c2ccccc2)c(-c2ccccc2)n1)N1CCc2ccccc21 | inactive
Clc1nssc1=Nc1ccccc1 | inactive
Cc1nc2ccccc2n1CSc1ccccc1 | inactive
Nc1ccccc1N=c1ssnc1Cl | inactive
